Reference: EP0360850B1, “ANTIMICROBIAL AGENTS” (GIVAUDAN-ROURE (INTERNATIONAL) S.A., priority 1988, dated 1989)
≈ marks a conversion by molar mass, not a printed value. Read-outs that look alike come from different tables or passages of the source.

Assays:
[1] = system: Pseudomonas aeruginosa; assay: Preservative test in cosmetic lotion, weekly reinoculation; assay type: cell-based
Protocol: (§1) a. Cutting Oil Emulsions. […] Various aliquots of a 6% solution of the test compound in ethanol were added to cutting oil emulsions prepared by diluting Kutwell® 30 cutting oil concentrate 1 to 30 with water. These samples were inoculated with a culture of Ps. aeruginosa and incubated at 28°C on a rotary shaker. At weekly intervals, the samples were examined for microorganisms and then reinoculated and incubated. […] Cosmetic compositions. […] Serial dilutions of the compounds in dimethylformamide were added to a prepared, sterile cosmetic lotion of the following composition:
(§2) Samples of the lotion containing varying levels of the acrylonitrile derivatives were divided into two portions; one portion was inoculated with a spore suspension of A. niger, and the other portion with a 24-hour nutrient broth culture of Ps. aeruginosa. These two organisms are frequently found as contaminants in cosmetic products. The samples were incubated for a 4-week period with weekly examinations for the growth of the organisms. At weekly intervals, the samples were also reinoculated with the test organisms. Presence of fungal growth was determined macroscopically while bacterial contamination was determined by streaking one 4-mm loopful (0.01ml) of the lotion onto the surface of trypticase glucose extract agar (Baltimore Biological Laboratories, Baltimore, MD) containing 0.005% triphenyl tetrazolium chloride and letheen antidote. Results of these tests showing the minimum inhibitory concentration through the 4-week incubation period are tabulated in Table IV and show, once again, that the compounds where R is methyl or ethyl show a broad spectrum activity for the preservation of cosmetic products against the type of fungus and bacterium most likely to cause problems in cosmetics.

[2] = system: Aspergillus niger; assay: as above; assay type: cell-based; settings: A.n.
Protocol: as §1, §2

[3] = read-out: Minimum Inhibitory Concentration Week 1
[4] = read-out: Minimum Inhibitory Concentration Week 2
[5] = read-out: Minimum Inhibitory Concentration Week 3
[6] = read-out: Minimum Inhibitory Concentration Week 4
[7] = Week 1, read-out: Minimum Inhibitory Concentration Week 1
[8] = Week 2, weekly reinoculation, read-out: Minimum Inhibitory Concentration Week 2
[9] = Week 3, weekly reinoculation, read-out: Minimum Inhibitory Concentration Week 3
[10] = Week 4, weekly reinoculation, read-out: Minimum Inhibitory Concentration Week 4

Compound	MIC [1, 3] [µg/mL]	MIC [1, 4] [µg/mL]	MIC [1, 5] [µg/mL]	MIC [1, 6] [µg/mL]	MIC [2, 7] [µg/mL]	MIC [2, 8] [µg/mL]	MIC [2, 9] [µg/mL]	MIC [2, 10] [µg/mL]	MIC ([1]; cosmetic lotion, P.a., Week 1, read-out: Minimum Inhibitory Concentration Week 1) [µg/mL]
CCCSC=C(Cl)C#N [Example 5]	> 2000	1000 to 2000 (≈ 6190 to 12400 µM)	1000 to 2000 (≈ 6190 to 12400 µM)	500 to 1000 (≈ 3090 to 6190 µM)	125 to 250 (≈ 773 to 1550 µM)	125 to 250 (≈ 773 to 1550 µM)	125 to 250 (≈ 773 to 1550 µM)	125 to 250 (≈ 773 to 1550 µM)	
CCSC=C(Cl)C#N [Example 3, α-chloro-β-ethylthio-acrylonitrile]	250 to 500 (≈ 1690 to 3390 µM)	125 to 250 (≈ 847 to 1690 µM)	125 to 250 (≈ 847 to 1690 µM)	125 to 250 (≈ 847 to 1690 µM)	< 7.8	< 7.8	< 7.8	< 7.8	
CSC=C(Cl)C#N [Example 2, α-Chloro-β-methylthio-acrylonitrile]	31 to 62 (≈ 232 to 464 µM)	15 to 31 (≈ 112 to 232 µM)	15 to 31 (≈ 112 to 232 µM)	15 to 31 (≈ 112 to 232 µM)	< 7.8	< 7.8	< 7.8	< 7.8	
CCCCSC=C(Cl)C#N [Example 6]									> 2000
CSC=C(Br)C#N [Example 1, α-Bromo-β-methylthio-acrylonitrile]	< 7.8	< 7.8	< 7.8	< 7.8	< 7.8	< 7.8	< 7.8	< 7.8	
CCSC=C(Br)C#N [Example 4, α-bromo-β-ethylthio-acrylonitrile]	31 to 62 (≈ 161 to 323 µM)	31 to 62 (≈ 161 to 323 µM)	31 to 62 (≈ 161 to 323 µM)	31 to 62 (≈ 161 to 323 µM)	< 7.8	< 7.8	< 7.8	< 7.8	
